In patent US8003649B2 (AstraZeneca AB, priority 2007, dated 2011):

The molecules below were run against T1, Androgen Receptor (AR) (Homo sapiens, UniProt P10275, T878A) (assay: LNCaP Androgen Receptor Down-regulation Cell Assay (immunofluorescence end point)). Conditions: LNCaP prostate carcinoma cells, compound incubation 20-22 hours, 50% reduction of the AR signal; read-out: Androgen Receptor Down-regulation Assay (a) IC50/μM.
T1 construct: cell based immuno-fluorescence assay using the LNCaP prostate epithelial cell line; endogenous in cells; host or cells: LNCaP clone FGC (ATCC CRL-1740)
T1 sequence (P10275 1-920 T878A): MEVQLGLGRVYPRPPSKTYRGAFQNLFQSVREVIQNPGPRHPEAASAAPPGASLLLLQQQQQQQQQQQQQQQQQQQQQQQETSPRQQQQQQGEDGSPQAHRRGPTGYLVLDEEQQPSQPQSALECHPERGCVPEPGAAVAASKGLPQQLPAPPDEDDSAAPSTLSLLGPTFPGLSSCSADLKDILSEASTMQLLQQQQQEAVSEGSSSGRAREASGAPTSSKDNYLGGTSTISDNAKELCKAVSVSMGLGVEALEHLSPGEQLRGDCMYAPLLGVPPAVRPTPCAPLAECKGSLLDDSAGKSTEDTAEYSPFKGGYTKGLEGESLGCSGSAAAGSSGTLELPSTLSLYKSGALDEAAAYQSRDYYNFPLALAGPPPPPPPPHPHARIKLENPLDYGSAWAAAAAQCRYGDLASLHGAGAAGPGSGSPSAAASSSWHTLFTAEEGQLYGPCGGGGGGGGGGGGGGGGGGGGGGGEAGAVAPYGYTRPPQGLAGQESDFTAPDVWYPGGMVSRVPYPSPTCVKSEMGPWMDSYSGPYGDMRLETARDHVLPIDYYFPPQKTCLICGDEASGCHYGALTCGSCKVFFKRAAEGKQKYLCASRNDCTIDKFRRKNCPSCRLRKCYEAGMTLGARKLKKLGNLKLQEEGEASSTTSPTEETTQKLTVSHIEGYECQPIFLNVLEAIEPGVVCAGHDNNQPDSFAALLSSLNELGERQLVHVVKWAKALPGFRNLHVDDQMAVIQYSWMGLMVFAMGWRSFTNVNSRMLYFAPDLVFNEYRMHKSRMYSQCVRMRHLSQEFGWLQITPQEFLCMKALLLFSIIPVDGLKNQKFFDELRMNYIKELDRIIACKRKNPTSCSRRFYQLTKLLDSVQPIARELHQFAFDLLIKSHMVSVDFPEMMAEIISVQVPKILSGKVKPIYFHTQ
Assay type: cell-based
How it was run: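 LNCaP cells in medium with 5% charcoal-stripped FBS were plated overnight, then treated with a compound dilution series for 20-22 h at 37° C. After fixation, permeabilisation and immunostaining, AR-associated green fluorescence was quantified by laser-scanning microplate cytometry; AR down-regulation expressed as IC50 from fitted dose-response curves.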

Row | SMILES | DC50 [µM]
1 | FC(F)(F)c1nnc2ccc(N3CC[C@@H](Oc4ccncc4)C3)nn12 [Example 577, 6-[(3R)-3-(pyridin-4-yloxy)pyrrolidin-1-yl]-3-(trifluoromethyl)[1,2,4]triazolo[4,3-b]pyridazine] | 5
2 | FC(F)(F)c1nnc2ccc(N3CC[C@@H](Oc4ccccn4)C3)nn12 [Example 578, 6-[(3R)-3-(pyridin-2-yloxy)pyrrolidin-1-yl]-3-(trifluoromethyl)[1,2,4]triazolo[4,3-b]pyridazine] | 2.5
3 | FC(F)(F)c1ccc(O[C@@H]2CCN(c3ccc4nnc(C(F)(F)F)n4n3)C2)cc1 [Example 579] | 4.1
4 | N#Cc1ccc(O[C@@H]2CCN(c3ccc4nnc(C(F)(F)F)n4n3)C2)cc1 [Example 580] | 2
5 | Fc1ccc(O[C@@H]2CCN(c3ccc4nnc(C(F)(F)F)n4n3)C2)cc1 [Example 581] | 3.3
6 | COc1ccc(O[C@@H]2CCN(c3ccc4nnc(C(F)(F)F)n4n3)C2)cc1 [Example 582] | 2.4
7 | FC(F)(F)c1cccc(O[C@@H]2CCN(c3ccc4nnc(C(F)(F)F)n4n3)C2)c1 [Example 583] | 4.1
8 | N#Cc1cccc(O[C@@H]2CCN(c3ccc4nnc(C(F)(F)F)n4n3)C2)c1 [Example 584] | 2.8
9 | Fc1cccc(O[C@@H]2CCN(c3ccc4nnc(C(F)(F)F)n4n3)C2)c1 [Example 585] | 1.5
10 | COc1cccc(O[C@@H]2CCN(c3ccc4nnc(C(F)(F)F)n4n3)C2)c1 [Example 586] | 2.1
11 | FC(F)(F)c1nnc2ccc(N3CC[C@H](Oc4cccnc4)C3)nn12 [Example 587, 6-[(3S)-3-(pyridin-3-yloxy)pyrrolidin-1-yl]-3-(trifluoromethyl)[1,2,4]triazolo[4,3-b]pyridazine] | > 17
12 | FC(F)(F)c1nnc2ccc(N3CC[C@H](Oc4ccncc4)C3)nn12 [Example 588, 6-[(3S)-3-(pyridin-4-yloxy)pyrrolidin-1-yl]-3-(trifluoromethyl)[1,2,4]triazolo[4,3-b]pyridazine] | 5.3
13 | FC(F)(F)c1nnc2ccc(N3CC[C@H](Oc4ccccn4)C3)nn12 [Example 589, 6-[(3S)-3-(pyridin-2-yloxy)pyrrolidin-1-yl]-3-(trifluoromethyl)[1,2,4]triazolo[4,3-b]pyridazine] | 4.8
14 | N#Cc1ccc(O[C@H]2CCN(c3ccc4nnc(C(F)(F)F)n4n3)C2)cc1 [Example 591] | 20
15 | FC(F)(F)c1ccc(O[C@H]2CCN(c3ccc4nnc(C(F)(F)F)n4n3)C2)cc1 [Example 592] | 9.6
16 | C[C@H]1CN(Cc2cccnc2)CCN1c1ccc2nnc(C(F)(F)F)n2n1 [Example 593, 6-[(2S)-2-methyl-4-(pyridin-3-ylmethyl)piperazin-1-yl]-3-(trifluoromethyl)[1,2,4]triazolo[4,3-b]pyridazine] | 7.2
17 | C[C@H]1CN(Cc2ccc(F)c(F)c2)CCN1c1ccc2nnc(C(F)(F)F)n2n1 [Example 595] | 6.8
18 | C[C@H]1CN(Cc2cc(F)cc(F)c2)CCN1c1ccc2nnc(C(F)(F)F)n2n1 [Example 596] | 4.2
19 | C[C@H]1CN(Cc2ccc(F)cc2)CCN1c1ccc2nnc(C(F)(F)F)n2n1 [Example 597] | 2.9

Row | SMILES | DC50 [µM]
20 | C[C@H]1CN(Cc2ccc(F)c(C#N)c2)CCN1c1ccc2nnc(C(F)(F)F)n2n1 [Example 598] | 4.2
21 | C[C@@H]1CN(Cc2cccnc2)CCN1c1ccc2nnc(C(F)(F)F)n2n1 [Example 599, 6-[(2R)-2-methyl-4-(pyridin-3-ylmethyl)piperazin-1-yl]-3-(trifluoromethyl)[1,2,4]triazolo[4,3-b]pyridazine] | 5.8
22 | C[C@@H]1CN(Cc2ccc(C#N)cc2)CCN1c1ccc2nnc(C(F)(F)F)n2n1 [Example 600] | 0.85
23 | C[C@@H]1CN(Cc2ccc(F)c(F)c2)CCN1c1ccc2nnc(C(F)(F)F)n2n1 [Example 601] | 2.2
24 | C[C@@H]1CN(Cc2cc(F)cc(F)c2)CCN1c1ccc2nnc(C(F)(F)F)n2n1 [Example 602] | 1.6
25 | C[C@@H]1CN(Cc2ccc(F)cc2)CCN1c1ccc2nnc(C(F)(F)F)n2n1 [Example 603] | 3.5
26 | C[C@@H]1CN(Cc2ccc(F)c(C#N)c2)CCN1c1ccc2nnc(C(F)(F)F)n2n1 [Example 604] | 1.7
27 | FC(F)(F)c1nnc2ccc(N3CC=C(c4cccnc4)CC3)nn12 [Example 605, 1′-[3-(trifluoromethyl)[1,2,4]triazolo[4,3-b]pyridazin-6-yl]-1′,2′,3′,6′-tetrahydro-3,4′-bipyridine] | 5
28 | Fc1cnccc1C1=CCN(c2ccc3nnc(C(F)(F)F)n3n2)CC1 [Example 606] | 2.7
29 | Fc1cncc(C2=CCN(c3ccc4nnc(C(F)(F)F)n4n3)CC2)c1 [Example 607] | 7.4
30 | CCOC(=O)c1cncc(C2=CCN(c3ccc4nnc(C(F)(F)F)n4n3)CC2)c1 [Example 608] | 2.7
31 | COc1ncc(C2=CCN(c3ccc4nnc(C(F)(F)F)n4n3)CC2)cc1F [Example 609] | 6.6
32 | FC(F)(F)c1nnc2ccc(N3CCC(c4cccnc4)CC3)nn12 [Example 610, 6-(4-pyridin-3-ylpiperidin-1-yl)-3-(trifluoromethyl)[1,2,4]triazolo[4,3-b]pyridazine] | 3.2
33 | Fc1cnccc1C1CCN(c2ccc3nnc(C(F)(F)F)n3n2)CC1 [Example 611] | 1.6
34 | Fc1cncc(C2CCN(c3ccc4nnc(C(F)(F)F)n4n3)CC2)c1 [Example 612] | > 13
35 | COc1ncc(C2CCN(c3ccc4nnc(C(F)(F)F)n4n3)CC2)cc1F [Example 614] | > 12
36 | Nc1ccc(C2CCN(c3ccc4nnc(C(F)(F)F)n4n3)CC2)cc1 [Example 615, 4-[1-[3-(trifluoromethyl)[1,2,4]triazolo[4,3-b]pyridazin-6-yl]piperidin-4-yl]aniline] | 0.88
37 | Nc1cccc(C2CCN(c3ccc4nnc(C(F)(F)F)n4n3)CC2)c1 [Example 616, 3-[1-[3-(trifluoromethyl)[1,2,4]triazolo[4,3-b]pyridazin-6-yl]piperidin-4-yl]aniline] | 1.7
38 | FC(F)(F)c1nnc2ccc(N3CCC(Oc4cncc(Cl)c4)CC3)nn12 [Example 617] | 4.3

Row | SMILES | DC50 [µM]
39 | FC(F)(F)c1nnc2ccc(N3CCC(Oc4ccc(Cl)cn4)CC3)nn12 [Example 618] | > 4
40 | FC(F)(F)c1nnc2ccc(N3CCC(Oc4ccncn4)CC3)nn12 [Example 619] | 4.5
41 | FC(F)(F)c1ccnc(OC2CCN(c3ccc4nnc(C(F)(F)F)n4n3)CC2)c1 [Example 621] | 2.3
42 | Cc1ccnc(OC2CCN(c3ccc4nnc(C(F)(F)F)n4n3)CC2)n1 [Example 622] | 7.4
43 | N#Cc1cccc(OC2CCN(c3ccc4nnc(C(F)(F)F)n4n3)CC2)c1 [Example 623] | 0.89
44 | Fc1ccc(OC2CCN(c3ccc4nnc(C(F)(F)F)n4n3)CC2)cc1 [Example 625] | 1.4
45 | FC(F)(F)c1cccc(OC2CCN(c3ccc4nnc(C(F)(F)F)n4n3)CC2)c1 [Example 626] | 1.1
46 | N#Cc1ccc(OC2CCN(c3ccc4nnc(C(F)(F)F)n4n3)CC2)cc1 [Example 627] | 1.7
47 | N#Cc1ccc(OC2CCN(c3ccc4nnc(C(F)(F)F)n4n3)CC2)nc1 [Example 628] | 2.7
48 | CN(CCO)C(=O)c1ccc(C2CCN(c3ccc4nnc(C(F)(F)F)n4n3)CC2)cc1 [Example 630] | 2.4
49 | O=C(NCCN1CCCC1)c1ccc(C2CCN(c3ccc4nnc(C(F)(F)F)n4n3)CC2)cc1 [Example 631] | 1.1
50 | COCCNC(=O)c1ccc(C2CCN(c3ccc4nnc(C(F)(F)F)n4n3)CC2)cc1 [Example 633] | 1.9
51 | CN(C)C(=O)c1ccc(C2CCN(c3ccc4nnc(C(F)(F)F)n4n3)CC2)cc1 [Example 634] | 1.1
52 | O=C(c1ccc(C2CCN(c3ccc4nnc(C(F)(F)F)n4n3)CC2)cc1)N1CCOCC1 [Example 635] | 2.9
53 | O=C(c1ccc(C2CCN(c3ccc4nnc(C(F)(F)F)n4n3)CC2)cc1)N1CCNCC1 [Example 636] | 20
54 | CCNC(=O)c1ccc(C2CCN(c3ccc4nnc(C(F)(F)F)n4n3)CC2)cc1 [Example 637] | 1.8
55 | O=C(NCCN1CCOCC1)c1ccc(C2CCN(c3ccc4nnc(C(F)(F)F)n4n3)CC2)cc1 [Example 638, N-(2-morpholin-4-ylethyl)-4-[1-[3-(trifluoromethyl)[1,2,4]triazolo[4,3-b]pyridazin-6-yl]piperidin-4-yl]benzamide] | 0.9
56 | Cc1cc(CNC(=O)c2ccc(C3CCN(c4ccc5nnc(C(F)(F)F)n5n4)CC3)cc2)no1 [Example 640] | 0.92
